Among the test systems are NCI-H23; COLO 205; MOLT-4; OVCAR-5; HCT-116; CCRF-CEM; UO-31; DU-145; SF-539; NCI-H460; LOX IMVI; SK-MEL-5; SNB-19; A498; NCI/ADR-RES; M14; K562; Malme-3M; MCF7.
Common to all, as to assay: NCI anticancer screen, dose series, 48 h

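Protocol summary: plate cells (96-well), add compound at 5 concentrations, incubate 48 h, interpolate endpoints linearly. GI50 = concentration required for 50% inhibition of growth.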 Active and inactive are the calls of the source. Rule as the data show it: active = GI50 up to about 1.1 µM and inactive = higher. Where only a bound is given, the exact number is not on record here.

As for `O=C(O)c1nn(-c2ccc(Cl)cc2)c2c1C(=O)c1ccccc1C2=O`, the GI50 is 37.5 µM (inactive) in the assay with NCI-H23; > 100 µM (inactive) in the assay on COLO 205; 22 µM (inactive) in the assay on MOLT-4; > 100 µM (inactive) in the assay with OVCAR-5; > 100 µM (inactive) with HCT-116; < 0.01 µM (active) in the assay with CCRF-CEM. For the same compound, the GI50 was > 100 µM (inactive) with UO-31; > 100 µM (inactive) with DU-145; 30.2 µM (inactive) in the assay with SF-539; 62.1 µM (inactive) in the assay on NCI-H460; > 100 µM (inactive) with LOX IMVI; 20.5 µM (inactive) in the assay with SK-MEL-5. For the same compound, the GI50 is > 100 µM (inactive) with SNB-19; > 100 µM (inactive) in the assay with A498; > 100 µM (inactive) with NCI/ADR-RES; 20 µM (inactive) in the assay on M14; > 100 µM (inactive) with K562; 5.42 µM (inactive) with Malme-3M. Further, the GI50 in the assay with MCF7 was > 100 µM (inactive).
On to `O=C(O)CSSCC(=O)O`, for which the GI50 in the assay on NCI-H23, in the assay with COLO 205, in the assay with MOLT-4, in the assay with OVCAR-5, in the assay with HCT-116 and with CCRF-CEM was > 100 µM (inactive) in each case. Besides, the GI50 with UO-31, in the assay with DU-145, in the assay with SF-539, in the assay on NCI-H460, in the assay on LOX IMVI and in the assay with SK-MEL-5 was > 100 µM (inactive) throughout. In addition, the GI50 in the assay on SNB-19, in the assay with A498, in the assay on NCI/ADR-RES, in the assay on M14, in the assay with K562 and in the assay with Malme-3M was > 100 µM (inactive) in each case. In addition, the GI50 with MCF7 was > 100 µM (inactive).
Turning to `CS(=O)(=O)N1CC(CCl)c2ccc([N+](=O)[O-])cc21` (configuration not stated), the GI50 in the assay with NCI-H23, in the assay with COLO 205, with MOLT-4, in the assay on OVCAR-5, with HCT-116 and with CCRF-CEM was > 100 µM (inactive) each time. Besides, the GI50 is > 100 µM (inactive) in the assay on UO-31; > 100 µM (inactive) in the assay on DU-145; > 100 µM (inactive) in the assay on SF-539; 38.2 µM (inactive) with NCI-H460; > 100 µM (inactive) in the assay on LOX IMVI; > 100 µM (inactive) with SK-MEL-5. Moreover, the GI50 with SNB-19, with A498, in the assay on NCI/ADR-RES, with M14, in the assay with K562 and in the assay with Malme-3M was > 100 µM (inactive) in each case. Moreover, the GI50 in the assay with MCF7 was > 100 µM (inactive).
Turning to `CC1CNC(NS(=O)(=O)c2cc(C(=O)Nc3ccccc3)c(Cl)cc2S)=NN1` (configuration not stated), the GI50 with NCI-H23 was 44.1 µM (inactive); in the assay with COLO 205 it was 48.6 µM (inactive); in the assay with MOLT-4, 49.8 µM (inactive); with OVCAR-5 it was 27.2 µM (inactive); in the assay on HCT-116 it was 30.5 µM (inactive); in the assay with CCRF-CEM it was 32.8 µM (inactive). Besides, the GI50 was 77.8 µM (inactive) with UO-31; > 100 µM (inactive) in the assay with DU-145; 38.4 µM (inactive) with SF-539; 63 µM (inactive) in the assay on NCI-H460; 21 µM (inactive) in the assay with LOX IMVI; 23.2 µM (inactive) with SK-MEL-5. In addition, the GI50 was 57 µM (inactive) in the assay with SNB-19; 17.7 µM (inactive) in the assay with A498; > 100 µM (inactive) in the assay with NCI/ADR-RES; 26.4 µM (inactive) in the assay with M14; 35.2 µM (inactive) with K562; 31.2 µM (inactive) in the assay with Malme-3M. Further, the GI50 in the assay with MCF7 was 36.5 µM (inactive).
Regarding `CCOC(=O)C(CCN1CCC2(CC1)C(=O)N(C)CN2c1ccccc1)C(=O)OCC`, the GI50 with NCI-H23, with COLO 205, in the assay with MOLT-4, in the assay with OVCAR-5, in the assay with HCT-116 and in the assay on CCRF-CEM was > 100 µM (inactive) each time. The GI50 in the assay with UO-31, in the assay with DU-145, in the assay on SF-539, in the assay on NCI-H460, in the assay with LOX IMVI and with SK-MEL-5 was > 100 µM (inactive) each time. In addition, the GI50 in the assay with SNB-19, with A498, with NCI/ADR-RES, with M14, in the assay with K562 and in the assay on Malme-3M was > 100 µM (inactive) in each case. Moreover, the GI50 with MCF7 was > 100 µM (inactive).
Take `COc1ccc2c(c1)c1c3c(ccc4ncn2c43)N(CCN(C)C)CCN=1`: the GI50 in the assay on NCI-H23 is 0.968 µM (active); with COLO 205, 0.356 µM (active); with MOLT-4 it was 0.043 µM (active); in the assay on OVCAR-5, 0.676 µM (active); with HCT-116, 0.298 µM (active); in the assay on CCRF-CEM, 0.127 µM (active). For the same compound, the GI50 in the assay on UO-31 was 0.404 µM (active); in the assay on DU-145 it was 0.942 µM (active); in the assay with SF-539, 0.362 µM (active); with NCI-H460, 0.176 µM (active); in the assay with LOX IMVI, 0.378 µM (active); with SK-MEL-5, 0.91 µM (active). Moreover, the GI50 in the assay with SNB-19 was 0.405 µM (active); in the assay on A498, 1.42 µM (inactive); with NCI/ADR-RES it was 0.438 µM (active); with M14, 0.895 µM (active); in the assay with K562, 0.0488 µM (active); in the assay on Malme-3M, 1.2 µM (inactive). The GI50 in the assay with MCF7 was 0.288 µM (active).
Turning to `CC(O)CC(=O)CO[C@H]1[C@H](O)[C@@H](O)[C@@H](O)[C@@H]2NC(=O)c3c(cc4c(c3O)OCO4)[C@H]21` (some centres not stated), the GI50 in the assay on NCI-H23 is 0.0335 µM (active); in the assay on COLO 205 it was 0.0332 µM (active); in the assay on MOLT-4, 0.0313 µM (active); in the assay on OVCAR-5, 0.0711 µM (active); with HCT-116, 0.0264 µM (active); in the assay on CCRF-CEM, 0.0184 µM (active). Moreover, the GI50 was 0.115 µM (active) in the assay with UO-31; 0.0214 µM (active) in the assay on DU-145; 0.0214 µM (active) with SF-539; 0.0275 µM (active) in the assay with NCI-H460; 0.0208 µM (active) in the assay with LOX IMVI; 0.0137 µM (active) in the assay with SK-MEL-5. In addition, the GI50 with SNB-19 is < 0.0156 µM (active); in the assay with A498, 0.0218 µM (active); in the assay on NCI/ADR-RES, 1.29 µM (inactive); in the assay on M14 it was 0.0361 µM (active); in the assay with K562 it was 0.0392 µM (active); in the assay with Malme-3M it was 0.0118 µM (active). In addition, the GI50 with MCF7 was 0.0194 µM (active).
For `CCCCn1c2c(n(CCCC)c1=[Se])-c1c(n(CCCC)c(=[Se])n1CCCC)S[Se][Se]S2`, the GI50 was 25.1 µM (inactive) in the assay on NCI-H23; 8.65 µM (inactive) in the assay with COLO 205; 12.6 µM (inactive) in the assay with MOLT-4; 20.7 µM (inactive) in the assay with OVCAR-5; 22.8 µM (inactive) with HCT-116; 3.78 µM (inactive) in the assay on CCRF-CEM. In addition, the GI50 in the assay on UO-31 is 14.1 µM (inactive); with DU-145 it was 25 µM (inactive); with SF-539 it was 20.8 µM (inactive); with NCI-H460 it was 7.6 µM (inactive); with LOX IMVI it was 16.5 µM (inactive); with SK-MEL-5, 16.6 µM (inactive). In addition, the GI50 in the assay on SNB-19 is 17 µM (inactive); in the assay with A498, 33.5 µM (inactive); in the assay with NCI/ADR-RES, 19.5 µM (inactive); in the assay with M14 it was 25.6 µM (inactive); in the assay on K562, 9.84 µM (inactive); in the assay on Malme-3M, 3.52 µM (inactive). Also, in the assay with MCF7, the GI50 is 25.4 µM (inactive).

The record behind these values is ChEMBL document CHEMBL1201862, “PubChem BioAssay data set” (2004).
